Results: US10675256B2, “Methods for inhibiting conversion of choline to trimethylamine (TMA)” (The Procter & Gamble Company, priority 2017, dated 2020)
Read-outs that look alike come from different tables or passages of the source.

Assays:
[1] = test system: whole cell wild-type P. mirabilis; assay: Inhibition of conversion of choline to TMA by whole cell wild-type P. mirabilis (EXAMPLE 5); assay type: cell-based; conditions: Proteus mirabilis, read-out: EC50 (mol/L) whole cell wild-type P. mirabilis
Protocol: (§1) Ability of compounds to inhibit the conversion of choline to TMA in cell lysates or whole cells were determined using methods as described in Wang, Z, Roberts, A B, Buffa J A, et al. (2015) Non-lethal inhibition of gut microbial trimethylamine production for the treatment of atherosclerosis, Cell 163: 1585-1595. Briefly, efficacy was measured as IC50 (nM) by inhibition of conversion of choline to TMA metabolized by recombinant P. mirabilis Cut C/D lysate; recombinant D. alaskensis Cut C/D lysate, or whole cell wild-type P. mirabilis.

[2] = molecular target: T1, recombinant D. alaskensis Cut C/D lysate (Oleidesulfovibrio alaskensis, UniProt Q30W70); assay: Inhibition of conversion of choline to TMA by recombinant D. alaskensis Cut C/D lysate (EXAMPLE 5); assay type: biochemical
T1 construct: made in house
T1 sequence (Q30W70 whole entry): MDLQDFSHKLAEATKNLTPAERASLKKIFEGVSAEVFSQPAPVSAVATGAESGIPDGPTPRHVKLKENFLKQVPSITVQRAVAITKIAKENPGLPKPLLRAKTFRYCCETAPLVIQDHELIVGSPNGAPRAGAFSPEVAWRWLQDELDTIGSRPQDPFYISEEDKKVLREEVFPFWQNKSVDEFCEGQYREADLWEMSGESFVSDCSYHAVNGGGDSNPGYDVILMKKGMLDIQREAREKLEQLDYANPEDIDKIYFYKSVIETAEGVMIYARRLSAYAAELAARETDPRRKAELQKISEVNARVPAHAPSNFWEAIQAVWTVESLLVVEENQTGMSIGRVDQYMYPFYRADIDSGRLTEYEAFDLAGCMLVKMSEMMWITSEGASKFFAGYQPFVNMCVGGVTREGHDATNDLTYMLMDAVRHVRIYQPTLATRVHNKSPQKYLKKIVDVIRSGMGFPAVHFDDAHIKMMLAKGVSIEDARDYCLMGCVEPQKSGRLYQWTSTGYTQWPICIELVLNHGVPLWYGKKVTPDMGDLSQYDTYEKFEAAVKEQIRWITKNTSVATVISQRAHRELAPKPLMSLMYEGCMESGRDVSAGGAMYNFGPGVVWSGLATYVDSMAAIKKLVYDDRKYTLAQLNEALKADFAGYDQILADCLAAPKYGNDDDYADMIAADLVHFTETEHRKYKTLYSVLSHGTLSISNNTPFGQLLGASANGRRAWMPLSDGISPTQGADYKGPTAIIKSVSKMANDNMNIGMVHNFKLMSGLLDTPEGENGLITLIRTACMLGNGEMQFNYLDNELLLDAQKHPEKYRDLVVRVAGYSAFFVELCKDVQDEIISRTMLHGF
Protocol: as §1

[3] = test system: conversion of choline to TMA; assay: Rapid preclinical method, d9-choline challenge in mice (EXAMPLE 6); assay type: in vivo; conditions: oral gavage with 2 mg d9-Choline, plasma at 3 hr
Protocol: Challenge: C57bl/6 female mice (8 wk of age ˜20 g BW) were maintained in accordance with the NIH guidelines in a 12:12 hr light:dark cycle on normal chow diet were placed in a clean cage without food ˜1 hr prior to gavage. […] Food was returned after a 2 hr fast (1 hr after gavage administration). Blood (30 μL) was collected into a heparinized capillary tube 2, 3 and 4 hours after gavage. Blood was kept at 4° C., then spun using a centrifuge (5 min in centrifuge designed to capillary tubes) to separate plasma and hematocrit within 4 hours after collection. Plasma samples were stored at −80° C. Concentration of d9 Choline, d9TMA and d9TMAO was measured by LC-MS/MS.
Flora Normalization: Twenty four hours post-gavage mice were placed in a clean cage and fecal material from conventional mice was spread in all the cages.

[4] = molecular target: recombinant P. mirabilis Cut C/D lysate (Proteus mirabilis, UniProt B4EYG1); assay: Inhibition of conversion of choline to TMA by recombinant P. mirabilis Cut C/D lysate (EXAMPLE 5); assay type: biochemical
recombinant P. mirabilis Cut C/D lysate, sequence (B4EYG1 entry or part of it): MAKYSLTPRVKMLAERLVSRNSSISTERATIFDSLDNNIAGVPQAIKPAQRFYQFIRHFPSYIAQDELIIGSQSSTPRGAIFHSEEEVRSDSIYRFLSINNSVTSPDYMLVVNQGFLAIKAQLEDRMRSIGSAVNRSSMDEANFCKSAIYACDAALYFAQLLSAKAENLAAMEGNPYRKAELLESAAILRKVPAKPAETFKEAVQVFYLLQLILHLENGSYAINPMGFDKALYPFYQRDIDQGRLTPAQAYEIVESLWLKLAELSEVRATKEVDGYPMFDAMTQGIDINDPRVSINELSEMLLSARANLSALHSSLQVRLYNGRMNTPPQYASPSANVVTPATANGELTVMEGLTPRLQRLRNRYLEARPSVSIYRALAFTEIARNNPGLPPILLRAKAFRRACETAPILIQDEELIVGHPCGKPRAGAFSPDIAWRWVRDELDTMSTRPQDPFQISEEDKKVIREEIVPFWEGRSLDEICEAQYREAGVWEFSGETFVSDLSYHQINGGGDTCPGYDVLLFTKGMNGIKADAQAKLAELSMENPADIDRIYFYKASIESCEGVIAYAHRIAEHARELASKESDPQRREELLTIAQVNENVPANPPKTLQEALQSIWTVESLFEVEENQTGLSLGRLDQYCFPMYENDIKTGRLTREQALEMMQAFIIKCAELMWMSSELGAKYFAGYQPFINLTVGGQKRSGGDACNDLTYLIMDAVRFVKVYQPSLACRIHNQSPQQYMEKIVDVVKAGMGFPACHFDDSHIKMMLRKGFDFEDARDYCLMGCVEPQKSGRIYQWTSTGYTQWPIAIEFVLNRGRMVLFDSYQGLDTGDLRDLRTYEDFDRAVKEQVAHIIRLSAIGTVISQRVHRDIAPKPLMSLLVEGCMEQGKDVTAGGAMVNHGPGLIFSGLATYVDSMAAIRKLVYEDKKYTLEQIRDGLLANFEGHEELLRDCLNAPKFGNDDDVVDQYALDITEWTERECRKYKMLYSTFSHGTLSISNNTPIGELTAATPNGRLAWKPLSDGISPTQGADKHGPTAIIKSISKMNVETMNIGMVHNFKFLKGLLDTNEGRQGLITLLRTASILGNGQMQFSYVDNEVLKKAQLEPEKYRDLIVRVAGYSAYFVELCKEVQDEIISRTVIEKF
recombinant P. mirabilis Cut C/D lysate, sequence (B4EYG0 entry or part of it, further chain): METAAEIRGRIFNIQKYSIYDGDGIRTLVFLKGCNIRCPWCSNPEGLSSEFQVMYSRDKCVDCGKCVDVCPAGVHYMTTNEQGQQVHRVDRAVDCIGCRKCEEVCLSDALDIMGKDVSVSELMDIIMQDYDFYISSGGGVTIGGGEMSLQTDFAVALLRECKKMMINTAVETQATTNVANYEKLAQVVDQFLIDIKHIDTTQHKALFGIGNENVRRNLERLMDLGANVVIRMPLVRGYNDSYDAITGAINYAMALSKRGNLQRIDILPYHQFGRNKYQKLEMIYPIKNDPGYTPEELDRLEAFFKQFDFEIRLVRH
Protocol: as §1

plasma TMAO = assay: Preclinical screening method, plasma TMAO in mice on 1% choline diet (EXAMPLE 4); assay type: in vivo, mice (C57bl/6); conditions: 1% Choline Added diet, oral gavage 310 mg/kg/day, 3 days, blood 20 hours post gavage
Protocol: Starting at day 0, mice (C57bl/6, ˜19 g, 10 wk of age; n=5/group) were maintained in accordance with the NIH guidelines in a 12:12 hr light:dark cycle and provided with 1% Choline Added diet (Envigo custom formulation prepared, similar to Teklad Global Rodent Diet 2018) ad libitum. Concurrent with introduction of the diet, mice were gavaged once daily orally using a 1.5″ 22G ball-tip curved feeding needle to administer compound in 200 μl or less of water at one or multiple of the dose 0, 1.0, 3.1, 10, 31, 100 or 310 mg/kg/day. Urine was collected once daily in the morning. Animals were restrained by hand and bladder was expressed by gentle palpation of the pelvic region. […]
For measurement of TMA in plasma, samples were acidified (10 mM HCl final) prior to storage at −80° C. TMAO and TMA and their d9-isotopologues were quantified using stable isotope dilution HPLC with on-line electrospray ionization tandem mass spectrometry ([…]) methods as described in (Wang Z, Klipfell E, Bennett B J, et al. (2011) Gut flora metabolism of phosphatidylcholine promotes cardiovascular disease. Nature 472:57-63) using d4(1,1,2,2)-choline, d3(methyl)-TMAO, and d3(methyl)-TMA as internal standards. […]

[5] = test system: Proteus mirabilis 29906 (Pm) lysate; assay: Inhibition of formation of TMA from choline in Proteus mirabilis lysate (EXAMPLE 2); assay type: biochemical; conditions: Proteus mirabilis 29906 lysate, d9-choline chloride substrate, 37° C. for two hours; read-out: TMA Inhibition (IC50, mol/L)
[6] = test system: human fecal polymicrobial community; assay: Human fecal polymicrobial incubation with d9-choline, TMA inhibition (EXAMPLE 3); assay type: cell-based; conditions: human fecal slurry 0.2% (w/v), 50 μM d9-choline chloride, 20 hours at 37° C., anaerobic; read-out: TMA Inhibition (IC50, mol/L)
Protocol: Human fecal polymicrobial incubation with deuterium labeled choline compound screening method, including cell viability assay. All materials were pre-reduced in an anaerobic chamber for 24 hours before using in the experiments and experimental procedures were performed under anaerobic conditions (chamber purged with 85% nitrogen, 5% hydrogen, 10% carbon dioxide).
Human fecal samples were collected from a healthy volunteer with no chronic illnesses, blood borne diseases or active infections. The volunteer had not received antibiotics within two months prior to donation and provided written informed consent. Samples were diluted to make a 20% (w/v) fecal slurry by resuspension of the feces in a media containing 3% (w/v) tryptic soy broth, 1% (w/v) trehalose, pH 7.3. The fecal slurry was homogenized and filtered by hand using a stomacher bag with an integrated 170 μm membrane. DMSO (5% (w/v)) was added to the filtered slurry and aliquots were stored in cryogenic vials at −80° C. until use. Frozen fecal slurries were diluted to 0.2% (w/v) with M9 media (Na2HPO4 (6 g/L), KH2PO4 (3 g/L), NaCl (0.5 g/L) with addition of 0.1 mM CaCl2 and 1 mM MgSO4) and dispensed (1 mL) into deep well 96-well plates. Diluted fecal slurries containing 50 μM d9-choline chloride and compounds in doses ranging from 500 μM to 3.81 nM were sealed and incubated at 37° C. with shaking. After 20 hours, an aliquot of the fecal polymicrobial community was analyzed for viability using PrestoBlue cell viability reagent (Thermo Fisher Scientific, USA) as described below. The reaction plates were subsequently centrifuged (4000×g at 4° C. for 12 min) to pellet fecal material and 150 μl aliquots were transferred and quenched with addition of formic acid to 1% (v/v). All fecal processing and polymicrobial assay steps were performed in an anaerobic environment. The products were determined by LC/MS/MS and IC50 values were calculated as described previously for detection and analysis of TMA and d9-TMA in EXAMPLE 2.

C[N+](C)(CCO)C1CC1 [ID 1, Cyclopropane-dimethyl-ethanolamine iodide]
EC50 [1]: 0.0481 µM | IC50 [2]: 0.087 µM | Calculated EC50 (mg/kg) compared to Vehicle Control [3]: 0.75 mg/kg | IC50 [4]: 0.0062 µM | Remaining plasma TMAO as a percentage of plasma TMAO in same day vehicle control (% of control remaining) (plasma TMAO): 5%

C#CC[N+](C)(C)C1CC1 [ID 3, N,N-dimethyl-N-(prop-2-yn-1-yl)cyclopropanaminium bromide]
EC50 ([1]; inhibition of conversion of choline to TMA): 0.038 µM | IC50 [2]: 0.11 µM | Calculated EC50 (mg/kg) compared to Vehicle Control [3]: 0.04 mg/kg | IC50 [4]: 0.15 µM | Remaining plasma TMAO as a percentage of plasma TMAO in same day vehicle control (% of control remaining) (plasma TMAO): 23%

C[N+](C)(CF)C1CC1 [N-(fluoromethyl)-N,N-dimethylcyclopropanaminium iodide]
IC50 [2]: 45 µM | IC50 [5]: 60 µM | IC50 [4]: 21 µM

C[N+](C)(CCO)C1CC1 [compound 1]
IC50 [5]: 0.000251 µM | IC50 [6]: 135 µM

C=CC[N+](C)(C)C1CC1 [compound 2, N-allyl-N,N-dimethylcyclopropanaminium]
IC50 [5]: 0.00398 µM | IC50 [6]: 53.2 µM

C#CC[N+](C)(C)C1CC1 [compound 3, N,N-dimethyl-N-(prop-2-yn-1-yl)cyclopropanaminium]
IC50 [5]: 0.0331 µM | IC50 [6]: 0.428 µM

COC(=O)C[N+](C)(C)C1CC1 [compound 4, N-(2-methoxy-2-oxoethyl)-N,N-dimethylcyclopropanaminium]
IC50 [5]: 89.2 µM | IC50 [6]: 134 µM

C=C(C[N+](C)(C)C1CC1)C(=O)OC [compound 5, N-(2-(methoxycarbonyl)allyl)-N,N-dimethylcyclopropanaminium]
IC50 [5]: 50.4 µM | IC50 [6]: 166 µM

COC(=O)C(=O)C[N+](C)(C)C1CC1 [compound 6, N-(3-methoxy-2,3-dioxopropyl)-N,N-dimethylcyclopropanaminium]
IC50 [5]: 4.65 µM

C[N+](C)(CC(N)=O)C1CC1 [compound 8, N-(2-amino-2-oxoethyl)-N,N-dimethylcyclopropanaminium]
IC50 [5]: 202 µM

CCOC(=O)CCCCC[N+](C)(C)C1CC1 [compound 9, N-(6-ethoxy-6-oxohexyl)-N,N-dimethylcyclopropanaminium]
IC50 [5]: 945 µM

C#CC[N+]1(C2CC2)CCOCC1 [compound 10, 4-cyclopropyl-4-(prop-2-yn-1-yl)morpholin-4-ium]
IC50 [5]: 1.28 µM
